Assay results as given in US11510859B2, “Method for improving aqueous solubility of water-insoluble or slightly water-soluble drugs” (MARINOMED BIOTECH AG, priority 2015, dated 2022).

Columns and labels:
Type in all cases: physicochemical
[1] = Solubility of budesonide in 0.25x McIlvaine buffer with/without propylene glycol, saponin, dexpanthenol (Examples 5-9)
Protocol: (§1) Budesonide was analyzed by RP-HPLC (UV absorbance detection at 244 nm) using isocratic elution with 55% acetonitrile 0.01% TFA/45% water 0.01% TFA at 1 ml/min for 7 min on an Agilent Zorbax SB C18 3.5 μm 4.6×150 mm column with 4×4 mm RP8 pre-column. From the budesonide-containing samples 40 μl were injected and analyzed.
Buffer • B . . . 5% propylene glycol • C . . . 10% propylene glycol • D . . . 15% propylene glycol • y-axis . . . concentration of dissolved budesonide
FIGS. 2a and 2b refer to the concentrations of budesonide still dissolved after one month of storage at ambient temperature (T˜20-25° C.) in 0.25× McIlvaine buffer containing 5% (FIG. 2a) and 10% (FIG. 2b) propylene glycol (maximum concentration 550 μg/ml budesonide). […] Further increase of escin concentration remains substantially without additional benefit. […] 0% Dexpanthenol • B . . . 1% Dexpanthenol • C . . . 2% Dexpanthenol • D . . . 5% Dexpanthenol • y-axis . . . μg/ml dissolved budesonide • x-axis . . . w/v % Escin
FIGS. 3a and 3b are based on data sets identical to those of FIG. 2a/2b but after 3 months of storage at ambient temperature (T˜20-25° C.). • FIG. 3a: 5% propylene glycol; FIG. 3b: 10% propylene glycol • A . . . 0% Dexpanthenol • B . . . 1% Dexpanthenol • C . . . 2% Dexpanthenol • D . . . 5% Dexpanthenol • y-axis . . . μg/ml dissolved budesonide • x-axis . . . w/v % Escin
FIG. 4 represents that 0.03% w/v escin and 5% v/v dexpanthenol independently increase the solubility of budesonide in McIlvaine buffer in the absence of propylene glycol. […] Yet, the solubility of budesonide in this buffer system, i.e., in the absence of propylene glycol, remains at or below the corresponding values achieved in the presence of propylene glycol alone, i.e., in the absence of escin and dexpanthenol (see FIGS. 2a, b and 3a, b). The only exception being the value at column D which moderately exceeds the solubility values achieved with propylene glycol alone. • A . . . 0% Escin/0% Dexpanthenol • B . . . 0% Escin/5% Dexpanthenol • C . . . 0.03% Escin/0% Dexpanthenol • D . . . 0.03% Escin/5% Dexpanthenol • y-axis . . . concentration of dissolved budesonide in [μg/ml]
For Quillaja saponins, but not for glycyrrhizin, this applies also at a saponin concentration of 0.1%. […] Escin • B . . . Glycyrrhizin • C . . . Quillaja extract • * . . . w/v % Saponin component (escin, glycyrrhizin or Quillaja ext.) • # . . . v/v % Dexpanthenol • y-axis . . . concentration of dissolved budesonide

[2] = Budesonide solubility and storage stability in the presence of carrageenan (Examples 1, 2, 12, 13); conditions: 1.2 g/L iota-carrageenan, optionally 0.4 g/L kappa-carrageenan; 5% or 10% propylene glycol
Protocol: Samples of series A (0% dexpanthenol): 2.5 ml solution containing the respective escin concentration (McIlvaine 0.01%, 0.02%, 0.03% or McIlvaine buffer) were mixed with 5 ml carrageenan stock solution and 0.5 ml budesonide pre-solution and filled up to 10 ml with distilled water.
Samples of series B (2% dexpanthenol): 2.5 ml solution containing the respective escin concentration (McIlvaine 0.01%, 0.02%, 0.03% or McIlvaine buffer) were mixed with 0.2 ml dexpanthenol, 5 ml carrageenan stock solution and 0.5 ml budesonide pre-solution and filled up to 10 ml with distilled water. […]
After 3 months storage at room temperature, samples were taken and centrifuged for 11 min at 15700 rcf. The clear supernatant was filled into glass vials and the concentration of dissolved budesonide (maximal 500 μg/ml) was measured in duplicates by HPLC.
as §1, with “analyzed. […]” for “analyzed.”

[3] = Saturation concentrations of drugs in buffered solvent, HPLC of supernatant (Example 4); conditions: for Saturation concentration in 10% propylene glycol or DMSO without escin or dexpanthenol / Saturation concentration in 10% propylene glycol or DMSO, 0.1% escin and 5% dexpanthenol: McIlvaine buffer pH 6.0, compound pre-dissolved in propylene glycol
Protocol: 250 μl “McIlvaine 0.1%” were mixed with 50 μl dexpanthenol stock solution, brought to 900 μl with distilled water, and combined and vigorously mixed with 100 μl experimental compound pre-dissolved resp. pre-suspended in propylene glycol. Alternative solutions with compound pre-dilutions/pre-suspensions in DMSO were prepared. Samples were centrifuged for 10 min at 15800 rcf. Aliquots of the clear supernatants were transferred into autosampler glass vials and the content of the dissolved experimental compounds was analyzed by HPLC using isocratic elution with 70% or 80% acetonitrile 0.01% TFA/[…] or 30% water 0.01% TFA at 1 ml/min and 50° C. for 10 min on an Agilent Zorbax Eclipse Plus C18 column (3.5 μm, 4.6×150 mm) and UV absorbance detection at the wavelengths appropriate for the respective experimental compound.

[4] = Micelle formation of saponins, Hoechst 33342 fluorescence
Protocol: In water and aqueous buffers containing a detergent below the critical micelle concentration fluorescence of the Hoechst 33342 dye is almost undetectable. Upon increase of the detergent concentration until the critical micelle concentration is reached micelles begin to form and the dye starts getting incorporated into the micelles, whereupon an increase of a fluorescence signal can be detected. For the experiments of this example, the dye was mixed at a final concentration of 7 μM with aqueous buffer comprising different concentrations of saponin in black, flat and clear bottom 96-well plates and emission spectra were measured using a microplate reader (filters used: ex=355 nm and em=460 nm). Finally, data were background corrected.

## CCCC1O[C@@H]2C[C@H]3[C@@H]4CCC5=CC(=O)C=C[C@]5(C)[C@H]4[C@@H](O)C[C@]3(C)[C@]2(C(=O)CO)O1 (stereo partly shown) [Budesonide]
[1]; 0.01-0.02% w/v escin, 5% or 10% propylene glycol, one month storage at ambient temperature
  effect of escin on solubility of the steroid: dramatically increases the solubility
[1]; 0.03% escin and 5% dexpanthenol, McIlvaine buffer, no propylene glycol
  combined effect of escin and dexpanthenol on budesonide solubility: synergy seems to occur
[1]; 3 months storage at ambient temperature, particularly at 5% propylene glycol and very low escin
  effect of dexpanthenol on stability of the experimental solutions: seems to improve the stability
[1]; in the absence of dexpanthenol
  effect of glycyrrhizin and Quillaja saponaria extract saponins on steroid solubility: without substantial effect
[2]
  effect of carrageenans on solubility of the steroid: do not substantially interfere with the solubility

## COc1cc(/C=C/C(=O)CC(=O)/C=C/c2ccc(O)c(OC)c2)ccc1O [Curcumin]
[3]; 0.03% escin
  Saturation concentration in 10% propylene glycol or DMSO, escin and 5% dexpanthenol: 126 µg/mL
[3]; 2% glycyrrhizin instead of escin
  Saturation concentration in 10% propylene glycol or DMSO, saponin and 5% dexpanthenol: 285 µg/mL
[3]
  Saturation concentration in 10% propylene glycol or DMSO without escin or dexpanthenol: <0.2 µg/mL

## CC(=O)O[C@H]1C(=O)[C@@]2(C)[C@H]([C@H](OC(=O)c3ccccc3)[C@]3(O)C[C@H](OC(=O)[C@H](O)[C@@H](NC(=O)c4ccccc4)c4ccccc4)C(C)=C1C3(C)C)[C@]1(OC(C)=O)CO[C@@H]1C[C@@H]2O [Paclitaxel]
[3]
  Saturation concentration in 10% propylene glycol or DMSO without escin or dexpanthenol: 2.71 µg/mL
  Saturation concentration in 10% propylene glycol or DMSO, 0.1% escin and 5% dexpanthenol: 32.7 µg/mL

## CC[C@@H]1/C=C(\C)C[C@H](C)C[C@H](OC)[C@H]2O[C@@](O)(C(=O)C(=O)N3CCCC[C@H]3C(=O)O[C@H](/C(C)=C/[C@@H]3CC[C@H](Cl)[C@H](OC)C3)[C@H](C)[C@@H](O)CC1=O)[C@H](C)C[C@@H]2OC [Pimecrolimus]
[3]; 1% glycyrrhizin instead of escin
  Saturation concentration in 10% propylene glycol or DMSO, saponin and 5% dexpanthenol: 34.5 µg/mL
[3]
  Saturation concentration in 10% propylene glycol or DMSO without escin or dexpanthenol: <0.1 µg/mL

## C=CC[C@@H]1/C=C(\C)C[C@H](C)C[C@H](OC)[C@H]2O[C@@](O)(C(=O)C(=O)N3CCCC[C@H]3C(=O)O[C@H](/C(C)=C/[C@@H]3CC[C@@H](O)[C@H](OC)C3)[C@H](C)[C@@H](O)CC1=O)[C@H](C)C[C@@H]2OC.O [Tacrolimus/FK506, Tacrolimus]
[3]
  Saturation concentration in 10% propylene glycol or DMSO without escin or dexpanthenol: 132 µg/mL
  Saturation concentration in 10% propylene glycol or DMSO, 0.1% escin and 5% dexpanthenol: 774 µg/mL

## CC1(C)[C@@H](O[C@H]2O[C@H](C(=O)O)[C@@H](O)[C@H](O)[C@H]2O[C@@H]2O[C@H](C(=O)O)[C@@H](O)[C@H](O)[C@H]2O)CC[C@]2(C)[C@H]3C(=O)C=C4[C@@H]5C[C@@](C)(C(=O)O)CC[C@]5(C)CC[C@@]4(C)[C@]3(C)CC[C@@H]12 [glycyrrhizin]
[4]; Hoechst 33342 dye 7 μM, room temperature
  concentration sufficient to trigger the formation of micelles (same RFU level): 0.5%
[4]; same fluorescence level
  increase of required concentration relative to escin: 25 fold
